# Where two headings read alike, the source gives them in different places. Starred links: 1 amine or outer side, 2 acyl side, 3 side chain; linkers in the order of their positions; H or OH if unused. Positions of bridges follow the written chain, without caps; N, C: chain ends. Residues, ends and D or L forms follow the SMILES beside them. Chains are numbered I, II in the order given. X4 = C[C@@H](CNC(=O)N[C@@H](C)CNC(=O)[*:2])NC(=O)NC[C@H](CCC(=O)O)N[*:1]
# How the values were obtained:
# normal mice (C57BL/6J) = assay: Blood glucose study in normal fed mice; assay type: in vivo, mouse; design: key to In vivo activity (indicator): + active; +++: + + + more active; conditions: for effect on blood glucose concentration: normal fed C57BL/6J mice, n = 3, 5 μg per mouse (50 nmol kg−1) i.v., monitored 6 h
# Description: In the first study, we evaluated the effect of the analogues on the blood glucose concentration of normal mice (Fig. 3). The fed mice were treated with the analogues and their blood glucose concentration was monitored before and after dosing for 6 h. […] Indeed, a decrease of blood glucose concentration is observed after 30 min and the effect is preserved for 4 h after dosing.
# Fig. 3 Blood glucose study in mice. a–c Blood glucose concentration in normal mice (C57BL/6J, male, 20–25 g, n = 3) before and after dosing: 5 μg per mouse (50 nmol kg^−1) i.v. Formulation: 20 μg mL^−1 in PBS 1×. The dosing was done at T0. Data are mean ± SEM. […] Source data are provided as a Source Data file
# After the acclimation period (at least 5 days), mice (male C57BL/6J mice (Charles River laboratories) 8 weeks old, 20–25 g) were randomized into 10 groups (n = 3 per group) according to their body weight. They were acutely treated via i.v. route at 10 am (5 µg per mouse). Blood glucose was measured before dosing and at 30 min, 1, 2, 4, 6 h after dosing in fed conditions.
# mouse GLP-1 receptor [1] = target: T1, mouse GLP-1 receptor (Mus musculus, UniProt O35659); assay: cell-based; conditions: for Emax: 14: experiment 1
# T1 sequence (O35659 22-463): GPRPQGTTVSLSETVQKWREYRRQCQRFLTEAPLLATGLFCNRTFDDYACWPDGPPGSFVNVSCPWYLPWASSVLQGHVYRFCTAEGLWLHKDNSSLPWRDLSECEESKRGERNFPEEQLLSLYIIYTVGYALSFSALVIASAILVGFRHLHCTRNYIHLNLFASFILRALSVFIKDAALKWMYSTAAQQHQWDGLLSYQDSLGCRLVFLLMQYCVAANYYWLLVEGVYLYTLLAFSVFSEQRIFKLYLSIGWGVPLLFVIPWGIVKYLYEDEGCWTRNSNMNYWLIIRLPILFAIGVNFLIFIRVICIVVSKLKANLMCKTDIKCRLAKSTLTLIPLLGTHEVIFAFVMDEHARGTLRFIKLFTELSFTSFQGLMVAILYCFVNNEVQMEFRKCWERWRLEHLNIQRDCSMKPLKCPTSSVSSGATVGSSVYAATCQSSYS
# in vitro = conditions: mouse, plasma, pH 7.4, % remaining analogue
# Description: The oligomer was then diluted 1/50 with a solution of plasma/PBS pH 7.4 (1:1) to afford a final concentration of 5 µM and incubated at 37 °C (4 µL of the stock solution was diluted with 196 µL of plasma/PBS, pH 7.4, 1:1). Each compound was also incubated in the absence of plasma (196 µL of H2O/PBS, pH 7.4, 1:1). At the indicated time (20 min and 60 min) an aliquot of 70 µL was removed from each experimental reaction and pipetting into 175 µL of acetonitrile at 0 °C to quench the reaction (t = 0 min was determined using the reaction without plasma). The samples were frozen at –80 °C before analysis. The frozen samples were defrosted, stirred with a vortex 5 min and finally centrifuged 5 min at 16 °C (1500 × g). The supernatant was analysed by LC-MS. The time course of oligomer degradation was determined by integrating the area of the peak in the extracted ion chromatogram.
# Supplementar y Figur e 2 : Mouse plasma degradation assay. […] Data are
# mean ± SEM, n = 4. Source data are provided as a Source Data file (T able 2 tab).
# Supplementar y Figur e 3.
# Data are mean ± SEM, n = 3.
# Source data are provided as a Source Data file […]
# mouse GLP-1 receptor [2] = target: T1, mouse GLP-1 receptor; conditions: for Potency (%), percentage of potency compare to GLP-1-G^2: cAMP production, from EC50
# [3] = read-out: Top (best-fit value), variable slope four-parameter fit, unconstrained
EC50 (mouse GLP-1 receptor [1]),Emax (mouse GLP-1 receptor [1]; [3]),"remaining at 20 min, 5 µM (in vitro)","remaining at 1 h, 5 µM (in vitro)",LogEC50 (best-fit value) (mouse GLP-1 receptor [2]),"Potency (%), percentage of potency compare to GLP-1-G^2 (mouse GLP-1 receptor [2])","Emax (mouse GLP-1 receptor [1]; read-out: Top (best-fit value), fit with BOTTOM = 0%)",SMILES,"In vivo activity (indicator) (normal mice (C57BL/6J); mice, 50 nmol kg−1 i.v.)",effect on blood glucose concentration (normal mice (C57BL/6J))
62 nM,–,–,41.6%,–,0.4%,228%,"CC[C@H](C)[C@@H](CNC(=O)N[C@@H](C)CNC(=O)N[C@@H](CC(C)C)C(=O)N[C@H](C(=O)N[C@@H](CCCCN)C(=O)NCC(=O)N[C@@H](CCCNC(=N)N)C(=O)NCC(N)=O)C(C)C)NC(=O)N[C@@H](CNC(=O)[C@H](CCC(=O)O)NC(=O)[C@H](CCCCN)NC(=O)[C@H](C)NC(=O)[C@H](C)NC(=O)[C@H](CCC(N)=O)NC(=O)CNC(=O)[C@H](CCC(=O)O)NC(=O)[C@H](CC(C)C)NC(=O)[C@H](Cc1ccc(O)cc1)NC(=O)[C@H](CO)NC(=O)[C@H](CO)NC(=O)[C@@H](NC(=O)[C@H](CC(=O)O)NC(=O)[C@H](CO)NC(=O)[C@@H](NC(=O)[C@H](Cc1ccccc1)NC(=O)[C@@H](NC(=O)CNC(=O)[C@H](CCC(=O)O)NC(=O)CNC(=O)[C@@H](N)Cc1c[nH]cn1)[C@@H](C)O)[C@@H](C)O)C(C)C)Cc1ccccc1 [compound 16, GG2[F^uαf^uA^u]^22-25]",–,showed no activity
> 10000 nM,198%,–,–,–,< 0.01%,–,"CC[C@H](C)[C@H](NC(=O)[C@H](Cc1ccccc1)NC(=O)[C@H](CCC(=O)O)NC(=O)[C@H](CCCCN)NC(=O)[C@H](C)NC(=O)[C@H](C)NC(=O)[C@H](CCC(N)=O)NC(=O)CNC(=O)[C@H](CCC(=O)O)NC(=O)[C@H](CC(C)C)NC(=O)[C@H](Cc1ccc(O)cc1)NC(=O)[C@H](CO)NC(=O)[C@H](CO)NC(=O)[C@@H](NC(=O)[C@H](CC(=O)O)NC(=O)[C@H](CO)NC(=O)[C@@H](NC(=O)[C@H](Cc1ccccc1)NC(=O)[C@@H](NC(=O)CNC(=O)[C@H](CCC(=O)O)NC(=O)CNC(=O)[C@@H](N)Cc1c[nH]cn1)[C@@H](C)O)[C@@H](C)O)C(C)C)C(=O)N[C@@H](C)CNC(=O)N[C@@H](C)CNC(=O)N[C@@H](C)CNC(=O)N[C@@H](CCCCN)C(=O)NCC(=O)N[C@@H](CCCNC(=N)N)C(=O)NCC(N)=O [compound 18, GG2[A^uA^uA^u]^24-27]",–,–

# The remaining lines, values behind:
SMILES,EC50 (mouse GLP-1 receptor [1]),Emax (mouse GLP-1 receptor [1]; [3]),"remaining at 20 min, 5 µM (in vitro)","remaining at 1 h, 5 µM (in vitro)",LogEC50 (best-fit value) (mouse GLP-1 receptor [2]),"Potency (%), percentage of potency compare to GLP-1-G^2 (mouse GLP-1 receptor [2])","Emax (mouse GLP-1 receptor [1]; read-out: Top (best-fit value), fit with BOTTOM = 0%)","In vivo activity (indicator) (normal mice (C57BL/6J); mice, 50 nmol kg−1 i.v.)",effect on blood glucose concentration (normal mice (C57BL/6J))
"CC[C@H](C)[C@H](NC(=O)[C@H](Cc1ccccc1)NC(=O)[C@H](CCC(=O)O)NC(=O)[C@H](CCCCN)NC(=O)[C@H](C)NC(=O)[C@H](C)NC(=O)[C@H](CCC(N)=O)NC(=O)CNC(=O)[C@H](CCC(=O)O)NC(=O)NC[C@H](C)NC(=O)NC[C@H](Cc1ccc(O)cc1)NC(=O)NC[C@H](C)NC(=O)[C@@H](NC(=O)[C@H](CC(=O)O)NC(=O)[C@H](CO)NC(=O)[C@@H](NC(=O)[C@H](Cc1ccccc1)NC(=O)[C@@H](NC(=O)CNC(=O)[C@H](CCC(=O)O)NC(=O)CNC(=O)[C@@H](N)Cc1c[nH]cn1)[C@@H](C)O)[C@@H](C)O)C(C)C)C(=O)N[C@@H](C)C(=O)N[C@@H](Cc1c[nH]c2ccccc12)C(=O)N[C@@H](CC(C)C)C(=O)N[C@H](C(=O)N[C@@H](CCCCN)C(=O)NCC(=O)N[C@@H](CCCNC(=N)N)C(=O)NCC(N)=O)C(C)C [compound 5, GG2[A^uY^uA^u]^11-14]",1.6 nM,89.4%,55%,33.6%,-8.806,15%,–,+,showed efficacy but no improvement
"CC[C@H](C)[C@H](NC(=O)[C@H](Cc1ccccc1)NC(=O)[C@H](CCC(=O)O)NC(=O)[C@H](CCCCN)NC(=O)[C@H](C)NC(=O)NC[C@H](C)NC(=O)NC[C@H](C)NC(=O)NC[C@H](CCC(=O)O)NC(=O)[C@H](CC(C)C)NC(=O)[C@H](Cc1ccc(O)cc1)NC(=O)[C@H](CO)NC(=O)[C@H](CO)NC(=O)[C@@H](NC(=O)[C@H](CC(=O)O)NC(=O)[C@H](CO)NC(=O)[C@@H](NC(=O)[C@H](Cc1ccccc1)NC(=O)[C@@H](NC(=O)CNC(=O)[C@H](CCC(=O)O)NC(=O)CNC(=O)[C@@H](N)Cc1c[nH]cn1)[C@@H](C)O)[C@@H](C)O)C(C)C)C(=O)N[C@@H](C)C(=O)N[C@@H](Cc1c[nH]c2ccccc12)C(=O)N[C@@H](CC(C)C)C(=O)N[C@H](C(=O)N[C@@H](CCCCN)C(=O)NCC(=O)N[C@@H](CCCNC(=N)N)C(=O)NCC(N)=O)C(C)C [compound 11, GG2[E^uA^uA^u]^15-18] (I: H-HGEGTFTSDVSSYL / II: AKEFIAWLVKGRG-NH2; linker I:C-II:N via X4)",–,–,44.7%,31.1%,-8.721,13%,–,–,–
"CC(C)C[C@H](NC(=O)[C@H](Cc1ccc(O)cc1)NC(=O)[C@H](CO)NC(=O)[C@H](CO)NC(=O)[C@@H](NC(=O)[C@H](CC(=O)O)NC(=O)[C@H](CO)NC(=O)[C@@H](NC(=O)[C@H](Cc1ccccc1)NC(=O)[C@@H](NC(=O)CNC(=O)[C@H](CCC(=O)O)NC(=O)CNC(=O)[C@@H](N)Cc1c[nH]cn1)[C@@H](C)O)[C@@H](C)O)C(C)C)C(=O)N[C@@H](CCC(=O)O)C(=O)NCC(=O)N[C@@H](CCC(N)=O)C(=O)N[C@@H](C)C(=O)N[C@@H](C)C(=O)N[C@@H](CCCCN)C(=O)N[C@@H](CCC(=O)O)C(=O)N[C@@H](Cc1ccccc1)C(=O)N[C@@H](C)CNC(=O)N[C@@H](C)CNC(=O)N[C@@H](C)CNC(=O)N[C@H](C(=O)N[C@@H](CCCCN)C(=O)NCC(=O)N[C@@H](CCCNC(=N)N)C(=O)NCC(N)=O)C(C)C [compound 17, GG2[A^uA^uA^u]^23-26]",3930 nM,98.7%,–,–,-5.406,0.01%,–,–,–

# — article PMC6389962 (Nature Communications, 2019)
